{"source": "PubChem BioAssay (NCI)", "tested_on": "MDA-MB-468 breast", "test": "DTP human tumour cell line panel, 48 h", "note": "Values joined by “and” are separate entries in the source; they are usually repeats but may differ in a detail not shown here. Equal values may be shown once.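 Cells were grown in 96-well plates and exposed to each compound for 48 hours at five concentrations; endpoints were interpolated linearly between bracketing concentrations, or set to the highest concentration if not reached. Abbreviation: GI50, concentration required for 50% inhibition of growth. TGI marks complete inhibition of growth.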 *1 amine or outer side, *2 acyl side, *3 side chain or, on linkers, in order; H or OH if unused. Where a SMILES comes first, the peptide text is derived from it. Bridges are numbered along the chain shown (N, C = ends). [ ]: non-standard residue; d: D form. The star is where a group is joined. Phe(3-Me) = Cc1cccc(C[C@H](N)C(=O)O)c1; NH(4-Cl-2-F-phenyl) = Fc1cc(Cl)ccc1N*; Pro(4R-Me) = C[C@H]1CN[C@H](C(=O)O)C1; Propanoyl(3-NMe2) = CN(C)CCC(=O)*; Hyp = O=C(O)[C@@H]1C[C@@H](O)CN1; aThr = C[C@H](O)[C@H](N)C(=O)O; Pip = O=C(O)[C@@H]1CCCCN1; CO = O=C([*:1])[*:2]"}
{"smiles": "CC(C)[C@@H]1CC[C@@H]2[C@@H]1[C@H](OC(=O)/C=C/c1ccccc1)[C@]1(C(C)C)C[C@@H](OC(=O)CO)[C@@]2(C)O1", "values": [{"measurement": "GI50", "result": 6070, "unit": "nM"}, {"measurement": "TGI", "result": 12.6, "unit": "µM"}]}
{"smiles": "O=S(=O)(NCCCNc1cc(-c2cn(-c3ccccc3)nc2-c2cccc(O)c2)ccn1)c1ccc(Cl)cc1", "values": [{"measurement": "GI50", "result": 1160, "unit": "nM"}, {"measurement": "TGI", "result": 4.56, "unit": "µM"}]}
{"smiles": "O=C1c2cccnc2C(=O)c2c1c(C(=O)OCCN1CCOCC1)c1ccccn21", "values": [{"measurement": "GI50", "result": 1510, "unit": "nM"}, {"measurement": "TGI", "result": 6.74, "unit": "µM"}]}
{"smiles": "CCCN1CCN(c2ccc3nc(-c4ccc5nc(-c6ccc(OCC)c(OCC)c6)[nH]c5c4)[nH]c3c2)CC1", "values": [{"measurement": "GI50", "result": 369, "unit": "nM"}, {"measurement": "TGI", "result": 1.3, "unit": "µM"}]}
{"smiles": "C/C(=N\\NC(=O)c1ccncc1)c1ccc(O)cc1O", "values": [{"measurement": "GI50", "result": 4160, "unit": "nM"}, {"measurement": "TGI", "result": 50.8, "unit": "µM"}]}
{"smiles": "CC[C@@]1(O)C(=O)OCc2c1cc1n(c2=O)Cc2c-1nc1ccccc1c2/C=N/OC(C)(C)C", "values": [{"measurement": "GI50", "result": "< 10", "unit": "nM"}, {"measurement": "TGI", "result": 0.0592, "unit": "µM"}]}
{"smiles": "COc1ccc(/C=C/C(=O)c2ccc(Nc3ccnc4cc(Cl)ccc34)cc2)cc1", "values": [{"measurement": "GI50", "result": "> 100000", "unit": "nM"}, {"measurement": "TGI", "result": "> 100", "unit": "µM"}]}
{"smiles": "COc1cc2c3c(n(CCCN4CCCC4)c(=O)c2cc1OC)-c1cc2c(cc1C3=O)OCO2", "values": [{"measurement": "GI50", "result": 1570, "unit": "nM"}, {"measurement": "TGI", "result": 3.17, "unit": "µM"}]}
{"smiles": "CC(C)Oc1ccc(C(=O)N[C@H](CNC(=O)CN(C)C)Cc2ccc(-c3cn4cccc([C@H](C)O)c4n3)cc2)cc1Cl", "values": [{"measurement": "GI50", "result": 38.9, "unit": "nM"}, {"measurement": "TGI", "result": 17.5, "unit": "µM"}]}
{"smiles": "O=C(Nc1ccc(Br)cc1F)c1cc(Br)ccc1O", "values": [{"measurement": "GI50", "result": 873, "unit": "nM"}, {"measurement": "TGI", "result": 5.42, "unit": "µM"}]}
{"smiles": "Nc1c(C(=O)Nc2ccccc2)sc2nc3c(cc12)CCCC3", "values": [{"measurement": "GI50", "result": 317, "unit": "nM"}, {"measurement": "TGI", "result": 47.9, "unit": "µM"}]}
{"smiles": "Cc1ccccc1/C=C1\\CN(C(=O)OC(C)(C)C)C/C(=C\\c2ccccc2C)C1=O", "values": [{"measurement": "GI50", "result": 1830, "unit": "nM"}, {"measurement": "TGI", "result": 4.45, "unit": "µM"}]}
{"smiles": "CCN1CCN(C(=O)[C@]23CCC(C)(C)C[C@@H]2C2=CC[C@@H]4[C@@]5(C)C/C(=C/c6cccnc6)C(=O)C(C)(C)[C@@H]5CC[C@@]4(C)[C@]2(C)CC3)CC1", "values": [{"measurement": "GI50", "result": 1280, "unit": "nM"}, {"measurement": "TGI", "result": 3.94, "unit": "µM"}]}
{"smiles": "COc1ccc(Nc2ncccc2C(=O)NCc2cn(Cc3cccc(Oc4ccccc4)c3)nn2)cc1", "values": [{"measurement": "GI50", "result": 2320, "unit": "nM"}, {"measurement": "TGI", "result": 6.95, "unit": "µM"}]}
{"smiles": "CC1Cc2cc(O)ccc2C2[C@@H]1C1CC[C@H](O)[C@@]1(C)C[C@@H]2O[N+](=O)[O-]", "note": "(some centres not stated)", "values": [{"measurement": "GI50", "result": 27600, "unit": "nM"}, {"measurement": "TGI", "result": "> 100", "unit": "µM"}]}
{"smiles": "C=C1N(C)c2ccc(Cl)cc2C1(C)C", "values": [{"measurement": "GI50", "result": 2640, "unit": "nM"}, {"measurement": "TGI", "result": 15.6, "unit": "µM"}]}
{"smiles": "O=C(CCl)Nc1ccc2c(c1)C(=O)c1ccc(NC(=O)CCl)cc1C2=O", "values": [{"measurement": "GI50", "result": 425, "unit": "nM"}, {"measurement": "TGI", "result": 1.55, "unit": "µM"}]}
{"smiles": "O=C(CN1CCN(c2ccc(Cl)cc2)CC1)N1CCN(c2nnc(-c3ccccc3)c(-c3ccccc3)n2)CC1", "values": [{"measurement": "GI50", "result": 1830, "unit": "nM"}, {"measurement": "TGI", "result": 53.3, "unit": "µM"}]}
{"smiles": "COc1cc(C2C(C#N)=C(N)Oc3cc(O)ccc32)cc(OC)c1OC", "note": "(configuration not stated)", "values": [{"measurement": "GI50", "result": 280, "unit": "nM"}, {"measurement": "TGI", "result": 1.14, "unit": "µM"}]}
{"smiles": "CC(=O)Nc1sc2c(c1-c1nc3ccccc3s1)CNC2", "values": [{"measurement": "GI50", "result": 1880, "unit": "nM"}, {"measurement": "TGI", "result": 7.24, "unit": "µM"}]}
{"smiles": "COc1ccc(Cn2c(Br)c3c(c2-c2cc(OC)c(OC)c(OC)c2)CCc2sc(NC(C)=O)nc2-3)cc1", "values": [{"measurement": "GI50", "result": 4860, "unit": "nM"}, {"measurement": "TGI", "result": 46.3, "unit": "µM"}]}
{"smiles": "COc1cc(NC(N)=NCCC(C)(C)c2ccc(C(F)(F)F)cc2)ncc1C#N", "values": [{"measurement": "GI50", "result": 1240, "unit": "nM"}, {"measurement": "TGI", "result": 2.8, "unit": "µM"}]}
{"smiles": "C[C@@]1(N2C(=O)OC[C@@H]2c2ccccc2)C(=O)N([C@H](CC(=O)N2CCC(N3CCCCC3)CC2)C(=O)NCc2cccc(C(F)(F)F)c2)[C@@H]1/C=C/c1ccccc1", "values": [{"measurement": "GI50", "result": 1900, "unit": "nM"}, {"measurement": "TGI", "result": 3.77, "unit": "µM"}]}
{"smiles": "COc1ccc(-c2nocc2-c2cc(OC)c(OC)c(OC)c2)cc1", "values": [{"measurement": "GI50", "result": 105, "unit": "nM"}, {"measurement": "TGI", "result": 18.6, "unit": "µM"}]}
{"smiles": "CSc1nc2c(c(=O)[nH]1)C(c1ccc(Cl)cc1)C1=C(N2)/C(=C/c2ccc(Cl)cc2)CNC1", "note": "(configuration not stated)", "values": [{"measurement": "GI50", "result": 1800, "unit": "nM"}, {"measurement": "TGI", "result": 4.02, "unit": "µM"}]}
{"smiles": "O=C(/C=C/c1cccnc1)c1ccccc1O", "values": [{"measurement": "GI50", "result": 15100, "unit": "nM"}, {"measurement": "TGI", "result": 37.3, "unit": "µM"}]}
{"smiles": "Nc1nc2c(c3cnccc13)C(c1cccc(Cl)c1)Cc1cnccc1-2", "note": "(configuration not stated)", "values": [{"measurement": "GI50", "result": 210, "unit": "nM"}, {"measurement": "TGI", "result": 0.576, "unit": "µM"}]}
{"smiles": "COc1ccc(-c2nc(C(Cl)Cl)nc3cc(-c4ccccc4)nn23)cc1", "values": [{"measurement": "GI50", "result": 1090, "unit": "nM"}, {"measurement": "TGI", "result": 3.1, "unit": "µM"}]}
{"smiles": "O=C(O)c1cc(Sc2ccc([N+](=O)[O-])c(C(=O)O)c2)ccc1[N+](=O)[O-]", "values": [{"measurement": "GI50", "result": "> 100000", "unit": "nM"}, {"measurement": "TGI", "result": "> 100", "unit": "µM"}]}
{"smiles": "Cc1cccc(C[C@H](NC(=O)Nc2ccc(Cl)cc2F)C(=O)N[C@@H]2C(=O)N3C[C@H](OC(=O)CCN(C)C)C[C@H]3C(=O)N3CCCC[C@H]3C(=O)N[C@@H](C)C(=O)N3C[C@H](C)C[C@H]3C(=O)O[C@H]2C)c1", "note": "({NH(4-Cl-2-F-phenyl)-CO}-[Phe(3-Me)][aThr][Hyp](Propanoyl(3-NMe2))[Pip]A[Pro(4R-Me)]; ester 2-C)", "values": [{"measurement": "GI50", "result": 255, "unit": "nM"}, {"measurement": "TGI", "result": 0.894, "unit": "µM"}]}
{"smiles": "CCc1ccc(Nc2cc(C)nc3nc(C)nn23)cc1", "values": [{"measurement": "GI50", "result": 28600, "unit": "nM"}, {"measurement": "TGI", "result": "> 100", "unit": "µM"}]}
{"smiles": "CN1CCCN(C(c2ccccc2)c2ccc(Br)cc2)CC1", "note": "(configuration not stated)", "values": [{"measurement": "GI50", "result": 1930, "unit": "nM"}, {"measurement": "TGI", "result": 6.53, "unit": "µM"}]}
{"smiles": "Cc1ccc(NC(=O)c2nc(S(C)=O)oc2-c2ccc(F)cc2)cc1Nc1nccc(-c2cccnc2)n1", "note": "(configuration not stated)", "values": [{"measurement": "GI50", "result": 2140, "unit": "nM"}, {"measurement": "TGI", "result": 4.65, "unit": "µM"}]}
{"smiles": "CC/C=C\\C/C=C\\C[C@H]1C/C=C2/C(=O)C=C[C@H]2C/C=C\\CCC(=O)O1", "values": [{"measurement": "GI50", "result": 1860, "unit": "nM"}, {"measurement": "TGI", "result": 5, "unit": "µM"}]}
{"smiles": "CC[C@]12CCCN3CC[C@]4(C(=C(C(=O)OC)C1)Nc1ccccc14)[C@@H]32", "values": [{"measurement": "GI50", "result": 11700, "unit": "nM"}, {"measurement": "TGI", "result": 28, "unit": "µM"}]}
{"smiles": "COc1cc(OC)cc(-c2cncn2-c2ccc(-c3nc4cc(OC)c(OC)c(OC)c4s3)cc2)c1", "values": [{"measurement": "GI50", "result": 10700, "unit": "nM"}, {"measurement": "TGI", "result": "> 100", "unit": "µM"}]}
{"smiles": "NC[C@@](O)(c1ccc(Cl)cc1)c1ccc(-c2cn[nH]c2)cc1", "values": [{"measurement": "GI50", "result": "1080 nM and 540 nM"}, {"measurement": "TGI", "result": "3.79 µM and 2.01 µM"}]}
{"smiles": "N=c1ccn2c(n1)O[C@@H]1[C@@H](O)[C@H](CO)O[C@@H]12", "values": [{"measurement": "GI50", "result": 48400, "unit": "nM"}, {"measurement": "TGI", "result": "> 100", "unit": "µM"}]}
{"smiles": "CCOC(=O)Nc1cccc(-n2cnc3cc(-c4ccc(O)cc4)ccc32)c1", "values": [{"measurement": "GI50", "result": 243, "unit": "nM"}, {"measurement": "TGI", "result": 10.6, "unit": "µM"}]}
{"smiles": "COc1cc2c3c(c4c5ccccc5[nH]c4c2c(OC)c1OC)C(=O)N(CCN1CCCCC1)C3=O", "values": [{"measurement": "GI50", "result": 1600, "unit": "nM"}, {"measurement": "TGI", "result": 19.2, "unit": "µM"}]}
{"smiles": "C[C@]12CC[C@H]3[C@@H](C[C@@H]4N=C(c5ccc(O)cc5)S[C@@]45C[C@H](O)CC[C@]35C)[C@@H]1CC[C@@H]2O", "values": [{"measurement": "GI50", "result": 5130, "unit": "nM"}, {"measurement": "TGI", "result": 41.6, "unit": "µM"}]}
